According to paper PMC10176470, “Engaging a Non-catalytic Cysteine Residue Drives Potent and Selective Inhibition of Caspase-6” (Journal of the American Chemical Society, 2023):

Key:
Assay type in all cases: cell-based
[1] = target: proteins of HEK293T cells transiently overexpressing caspase-6 (Homo sapiens, UniProt P06748); conditions: protein NPM1 (P06748)
[2] = target: proteins of HEK293T cells transiently overexpressing caspase-6 (Homo sapiens, UniProt P10599); conditions: exp_ref Probe; protein TXN (P10599); analysis C6
Sequence of proteins of HEK293T cells transiently overexpressing caspase-6 (Homo sapiens, UniProt P10599) (P10599 whole entry): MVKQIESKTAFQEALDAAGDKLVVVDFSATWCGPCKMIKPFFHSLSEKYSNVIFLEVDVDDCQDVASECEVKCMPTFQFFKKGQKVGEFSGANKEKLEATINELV

[3] = target: proteins of HEK293T cells transiently overexpressing caspase-6 (Homo sapiens, UniProt P26639); conditions: exp_ref Probe; protein TARS (P26639); analysis C6
Sequence of proteins of HEK293T cells transiently overexpressing caspase-6 (Homo sapiens, UniProt P26639) (P26639 whole entry): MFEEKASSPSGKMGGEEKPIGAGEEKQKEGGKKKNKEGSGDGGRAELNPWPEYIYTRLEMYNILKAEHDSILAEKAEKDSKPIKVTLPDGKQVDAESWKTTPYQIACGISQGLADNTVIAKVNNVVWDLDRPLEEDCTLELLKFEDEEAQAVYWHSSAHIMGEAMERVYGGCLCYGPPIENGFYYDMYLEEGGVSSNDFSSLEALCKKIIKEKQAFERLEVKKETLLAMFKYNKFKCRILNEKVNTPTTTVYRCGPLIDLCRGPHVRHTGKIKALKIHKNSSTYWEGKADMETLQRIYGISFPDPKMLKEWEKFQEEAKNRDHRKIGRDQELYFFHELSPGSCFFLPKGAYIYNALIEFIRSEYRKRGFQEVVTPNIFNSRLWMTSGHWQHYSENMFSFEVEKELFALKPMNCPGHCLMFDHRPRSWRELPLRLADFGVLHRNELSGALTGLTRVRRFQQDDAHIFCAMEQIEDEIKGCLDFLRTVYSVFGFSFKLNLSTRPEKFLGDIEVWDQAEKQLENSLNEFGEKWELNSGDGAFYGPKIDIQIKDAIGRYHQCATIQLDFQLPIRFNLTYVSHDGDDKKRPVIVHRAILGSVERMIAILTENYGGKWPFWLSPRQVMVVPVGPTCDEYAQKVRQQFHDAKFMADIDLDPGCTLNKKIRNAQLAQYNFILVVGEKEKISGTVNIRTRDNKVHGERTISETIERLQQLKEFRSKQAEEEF

[4] = target: proteins of HEK293T cells transiently overexpressing caspase-6 (Homo sapiens, UniProt P30050); conditions: protein RPL12 (P30050)
[5] = target: proteins of HEK293T cells transiently overexpressing caspase-6 (Homo sapiens, UniProt P46777); conditions: exp_ref Probe; protein RPL5 (P46777); analysis C6
[6] = target: proteins of HEK293T cells transiently overexpressing caspase-6 (Homo sapiens, UniProt P46779); conditions: exp_ref Probe; protein RPL28 (P46779); analysis C6
[7] = target: proteins of HEK293T cells transiently overexpressing caspase-6 (Homo sapiens, UniProt P63104); conditions: exp_ref Probe; protein YWHAZ (P63104); analysis C6
Sequence of proteins of HEK293T cells transiently overexpressing caspase-6 (Homo sapiens, UniProt P63104) (P63104 whole entry): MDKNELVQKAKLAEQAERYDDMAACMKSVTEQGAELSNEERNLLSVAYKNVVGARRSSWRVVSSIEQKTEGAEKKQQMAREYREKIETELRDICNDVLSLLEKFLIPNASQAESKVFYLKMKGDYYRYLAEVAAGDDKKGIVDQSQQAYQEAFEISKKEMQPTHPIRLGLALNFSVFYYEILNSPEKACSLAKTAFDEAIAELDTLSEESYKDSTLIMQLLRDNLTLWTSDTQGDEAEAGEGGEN

[8] = target: proteins of HEK293T cells transiently overexpressing caspase-6 (Homo sapiens, UniProt P78371); conditions: exp_ref Probe; protein CCT2 (P78371); analysis C6
Sequence of proteins of HEK293T cells transiently overexpressing caspase-6 (Homo sapiens, UniProt P78371) (P78371 whole entry): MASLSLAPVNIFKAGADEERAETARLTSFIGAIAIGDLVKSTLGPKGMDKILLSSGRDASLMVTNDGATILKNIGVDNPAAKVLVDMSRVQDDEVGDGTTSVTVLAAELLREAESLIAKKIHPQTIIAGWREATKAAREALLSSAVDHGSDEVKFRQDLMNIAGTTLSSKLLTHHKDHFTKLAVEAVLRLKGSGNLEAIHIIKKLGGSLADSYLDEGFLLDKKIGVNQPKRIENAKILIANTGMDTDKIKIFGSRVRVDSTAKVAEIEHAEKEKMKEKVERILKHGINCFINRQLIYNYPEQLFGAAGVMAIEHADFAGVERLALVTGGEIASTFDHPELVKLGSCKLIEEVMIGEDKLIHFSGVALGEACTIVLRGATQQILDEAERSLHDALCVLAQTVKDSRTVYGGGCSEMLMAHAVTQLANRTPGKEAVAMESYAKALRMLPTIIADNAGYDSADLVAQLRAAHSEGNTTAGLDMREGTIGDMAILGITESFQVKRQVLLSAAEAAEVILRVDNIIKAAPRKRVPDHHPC

[9] = target: proteins of HEK293T cells transiently overexpressing caspase-6 (Homo sapiens, UniProt Q14444); conditions: exp_ref Probe; protein CAPRIN1 (Q14444); analysis C6
[10] = target: proteins of HEK293T cells transiently overexpressing caspase-6 (Homo sapiens, UniProt Q7KZF4); conditions: exp_ref Probe; protein SND1 (Q7KZF4); analysis C6
Sequence of proteins of HEK293T cells transiently overexpressing caspase-6 (Homo sapiens, UniProt Q7KZF4) (Q7KZF4 whole entry): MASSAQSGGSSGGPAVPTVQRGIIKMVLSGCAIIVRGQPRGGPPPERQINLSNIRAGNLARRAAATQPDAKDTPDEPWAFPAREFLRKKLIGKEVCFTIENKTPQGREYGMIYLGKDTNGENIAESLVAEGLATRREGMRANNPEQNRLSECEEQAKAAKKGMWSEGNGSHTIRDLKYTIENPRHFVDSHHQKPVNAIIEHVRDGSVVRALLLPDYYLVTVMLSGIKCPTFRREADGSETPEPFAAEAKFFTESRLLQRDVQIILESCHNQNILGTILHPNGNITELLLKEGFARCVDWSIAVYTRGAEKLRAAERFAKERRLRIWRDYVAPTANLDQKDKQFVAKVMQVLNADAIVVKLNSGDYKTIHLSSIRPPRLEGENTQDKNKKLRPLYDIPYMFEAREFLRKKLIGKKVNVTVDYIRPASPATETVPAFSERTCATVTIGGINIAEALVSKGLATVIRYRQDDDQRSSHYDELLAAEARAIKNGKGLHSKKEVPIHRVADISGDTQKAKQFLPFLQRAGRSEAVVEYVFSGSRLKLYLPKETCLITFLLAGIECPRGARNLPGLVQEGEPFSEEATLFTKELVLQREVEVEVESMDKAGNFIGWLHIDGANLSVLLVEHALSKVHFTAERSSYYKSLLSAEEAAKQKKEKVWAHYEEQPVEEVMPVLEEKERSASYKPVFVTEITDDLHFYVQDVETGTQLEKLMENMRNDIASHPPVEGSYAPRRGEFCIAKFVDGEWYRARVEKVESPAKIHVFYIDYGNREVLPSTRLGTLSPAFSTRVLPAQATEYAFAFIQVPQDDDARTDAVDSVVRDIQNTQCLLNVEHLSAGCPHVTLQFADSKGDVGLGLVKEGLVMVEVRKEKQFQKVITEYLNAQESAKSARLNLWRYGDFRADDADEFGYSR

[11] = target: proteins of HEK293T cells transiently overexpressing caspase-6 (Homo sapiens, UniProt Q92900); conditions: Probe; protein UPF1 Q92900
[12] = target: proteins of HEK293T cells transiently overexpressing caspase-6 (Homo sapiens, UniProt Q99497); conditions: exp_ref Probe; protein PARK7 (Q99497); analysis C6
Sequence of proteins of HEK293T cells transiently overexpressing caspase-6 (Homo sapiens, UniProt Q99497) (Q99497 whole entry): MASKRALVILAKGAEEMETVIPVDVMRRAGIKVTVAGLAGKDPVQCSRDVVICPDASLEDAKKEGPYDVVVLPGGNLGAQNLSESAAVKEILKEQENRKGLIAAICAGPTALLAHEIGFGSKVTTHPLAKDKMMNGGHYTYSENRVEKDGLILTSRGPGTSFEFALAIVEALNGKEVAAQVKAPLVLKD

[13] = target: proteins of HEK293T cells transiently overexpressing caspase-6 (Homo sapiens, UniProt Q99798); conditions: exp_ref Probe; protein ACO2 (Q99798); analysis C6
Sequence of proteins of HEK293T cells transiently overexpressing caspase-6 (Homo sapiens, UniProt Q99798) (Q99798 28-780): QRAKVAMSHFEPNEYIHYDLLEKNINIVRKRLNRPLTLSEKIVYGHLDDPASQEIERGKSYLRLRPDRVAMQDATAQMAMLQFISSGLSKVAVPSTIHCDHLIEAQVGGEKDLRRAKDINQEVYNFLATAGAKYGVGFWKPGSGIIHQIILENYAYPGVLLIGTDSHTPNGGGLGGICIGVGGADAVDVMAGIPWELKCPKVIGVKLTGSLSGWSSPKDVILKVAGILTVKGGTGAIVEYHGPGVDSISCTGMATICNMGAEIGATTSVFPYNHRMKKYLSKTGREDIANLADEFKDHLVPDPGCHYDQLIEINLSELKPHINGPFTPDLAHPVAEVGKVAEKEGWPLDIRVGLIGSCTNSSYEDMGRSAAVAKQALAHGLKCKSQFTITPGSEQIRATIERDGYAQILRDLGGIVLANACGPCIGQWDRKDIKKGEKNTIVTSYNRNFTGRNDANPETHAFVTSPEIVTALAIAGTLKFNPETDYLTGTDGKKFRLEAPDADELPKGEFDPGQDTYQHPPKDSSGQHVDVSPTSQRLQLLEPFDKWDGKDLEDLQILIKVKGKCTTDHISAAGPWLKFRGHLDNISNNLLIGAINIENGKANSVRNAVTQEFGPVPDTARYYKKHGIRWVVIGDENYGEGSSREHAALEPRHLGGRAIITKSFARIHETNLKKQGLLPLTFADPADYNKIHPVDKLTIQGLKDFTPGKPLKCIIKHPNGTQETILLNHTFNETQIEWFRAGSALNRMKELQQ

[14] = target: proteins of HEK293T cells transiently overexpressing caspase-6 (Homo sapiens, UniProt Q9UBE0); conditions: protein SAE1 (Q9UBE0); exp_ref Probe; analysis C6
Sequence of proteins of HEK293T cells transiently overexpressing caspase-6 (Homo sapiens, UniProt Q9UBE0) (Q9UBE0 whole entry): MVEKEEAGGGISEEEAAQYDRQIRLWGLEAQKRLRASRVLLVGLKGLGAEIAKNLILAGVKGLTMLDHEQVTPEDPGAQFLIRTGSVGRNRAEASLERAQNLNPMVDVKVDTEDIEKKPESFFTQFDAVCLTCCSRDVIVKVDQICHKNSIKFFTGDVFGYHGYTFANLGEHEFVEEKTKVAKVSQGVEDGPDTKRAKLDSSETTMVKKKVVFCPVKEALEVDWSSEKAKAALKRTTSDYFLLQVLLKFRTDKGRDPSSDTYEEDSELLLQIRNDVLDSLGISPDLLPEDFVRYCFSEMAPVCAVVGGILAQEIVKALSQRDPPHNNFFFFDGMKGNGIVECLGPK

[15] = target: T1, proteins of HEK293T cells transiently overexpressing caspase-6 (Homo sapiens, UniProt Q9UQ80); conditions: protein PA2G4 (Q9UQ80)
T1 sequence (Q9UQ80 1-394): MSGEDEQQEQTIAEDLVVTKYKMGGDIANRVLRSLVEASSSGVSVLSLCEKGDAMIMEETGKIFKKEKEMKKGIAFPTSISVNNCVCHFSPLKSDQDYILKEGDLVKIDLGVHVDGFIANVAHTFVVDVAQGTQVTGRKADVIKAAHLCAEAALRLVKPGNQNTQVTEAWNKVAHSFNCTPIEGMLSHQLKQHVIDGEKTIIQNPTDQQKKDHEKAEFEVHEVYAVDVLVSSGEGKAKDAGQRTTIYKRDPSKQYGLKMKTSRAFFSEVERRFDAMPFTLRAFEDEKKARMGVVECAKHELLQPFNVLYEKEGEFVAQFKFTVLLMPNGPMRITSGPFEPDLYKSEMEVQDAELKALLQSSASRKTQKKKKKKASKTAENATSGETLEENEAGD

[16] = target: proteins of HEK293T cells transiently overexpressing caspase-6 (Homo sapiens, UniProt Q9Y6C9); conditions: protein MTCH2 (Q9Y6C9); exp_ref Probe; analysis C6
Sequence of proteins of HEK293T cells transiently overexpressing caspase-6 (Homo sapiens, UniProt Q9Y6C9) (Q9Y6C9 whole entry): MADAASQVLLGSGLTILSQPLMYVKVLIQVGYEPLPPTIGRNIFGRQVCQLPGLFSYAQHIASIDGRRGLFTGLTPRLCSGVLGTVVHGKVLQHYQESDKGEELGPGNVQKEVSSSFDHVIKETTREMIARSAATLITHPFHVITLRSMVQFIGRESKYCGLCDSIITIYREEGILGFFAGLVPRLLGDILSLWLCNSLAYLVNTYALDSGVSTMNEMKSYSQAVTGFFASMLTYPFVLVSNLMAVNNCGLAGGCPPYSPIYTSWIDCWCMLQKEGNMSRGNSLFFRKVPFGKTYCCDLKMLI

Sequence of proteins of HEK293T cells transiently overexpressing caspase-6 (Homo sapiens, UniProt P06748) (P06748 whole entry): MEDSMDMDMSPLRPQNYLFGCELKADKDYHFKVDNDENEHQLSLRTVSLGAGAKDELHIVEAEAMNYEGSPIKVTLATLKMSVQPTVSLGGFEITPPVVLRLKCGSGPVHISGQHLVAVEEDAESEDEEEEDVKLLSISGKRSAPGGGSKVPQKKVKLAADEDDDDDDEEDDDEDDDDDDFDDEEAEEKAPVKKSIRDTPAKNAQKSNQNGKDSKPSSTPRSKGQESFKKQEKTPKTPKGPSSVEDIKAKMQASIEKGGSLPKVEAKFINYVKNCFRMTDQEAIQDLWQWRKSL

SMILES: C#CCOc1ccc([C@@H]2C[C@@H](C(=O)Nc3ccc(OC(F)(F)F)cc3)CN(S(=O)(=O)C=C)C2)cc1 (relative stereo) [13-t]
- enrich.exp.med ([1]; exp_ref Probe, analysis C6): -0.3931
- enrich.exp.med.lin [1]: 0.7615
- enrich.exp.med.log2 [1]: -0.3931
- enrich.exp.med [2]: 0.866
- enrich.exp.med [3]: 0.1344
- enrich.exp.med ([4]; exp_ref Probe, analysis C6): 0.2557
- enrich.exp.med.lin [4]: 1.194
- enrich.exp.med.log2 [4]: 0.2557
- enrich.exp.med [5]: 0.3142
- enrich.exp.med [6]: -0.3003
- enrich.exp.med [7]: 0.8069
- enrich.exp.med [8]: 0.6812
- enrich.exp.med [9]: 0.06778
- enrich.exp.med [10]: 0.1516
- enrich.exp.med [11]: -0.4971
- enrich.exp.med [12]: 0.478
- enrich.exp.med [13]: -0.3317
- enrich.exp.med [14]: 1.338
- enrich.exp.med.lin [15]: 2.618
- enrich.exp.med.log2 [15]: 1.389
- enrich.exp.med ([15]; exp_ref Probe, analysis C6): 1.389
- enrich.exp.med [16]: 1.32
